The values below come from PMC7751940, “Synthesis, characterization and evaluation of antidengue activity of enantiomeric Schiff bases derived from S-substituted dithiocarbazate” (Turkish Journal of Chemistry, 2020).

The test system of series [1] is DENV 2. Nature of the series: Foci forming unit reduction assay (FFURA, secondary evaluation). In kind it is cell-based, dengue virus type 2 (DENV 2). Particulars: for Selectivity index CC50/IC50: CC50 (Vero, MTT) / IC50 (FFURA, DENV 2); for reduction in the number of foci: three different dilutions; for IC50: Dengue virus, 96 h, read-out: IC50 ± SE. The procedure: (§1) Aedes albopictus clone C6/36 cells were maintained to propagate the dengue virus type 2 (DENV 2); African green monkey ( Chlorocebus sp.) kidney Vero cells were grown for antiviral analysis. Both cells were grown in Eagle’s Minimum Essential Medium (EMEM) (Biowest LLC, Riverside, MO, USA) with 10% Fetal Bovine Serum (FBS) (Biowest LLC).
Antiviral activity was quantitatively validated by measuring the reduction in the number of DENV infectious foci after 4 days of treatment. DENV 2 infected Vero cells were treated with different antiviral dilutions supplemented with 2% FBS and 1.5% carboxymethyl cellulose (CMC). Virus foci were stained and visualized according to the published protocol. The number of foci was counted through stereomicroscope and virus titer was stated as foci forming unit (FFU). To calculate the antiviral activity of antidengue compounds, the percentage reduction in foci (%RF) was calculated between the treated, and untreated wells maintained in parallel. The assay was repeated three times, dose-response curves were plotted and half […] inhibitory concentration (IC50) and selectivity index (SI) were calculated.

The subject of series [2] is DENV 2. Nature of the series: CPE reduction-based antiviral assay (primary evaluation). In kind it is cell-based, dengue virus type 2 (DENV 2). Set-up: key: ++++ for total reduction; +++ for 75% reduction; ++ for 50% reduction; + for less than 50% reduction; -- for no reduction. The conditions noted are these: DENV 2-infected Vero cells, treated after 1 h viral adsorption, graded per Kudi and Myint. How it is done: as §1
Ribavirin tablets (Copegus, 200 mg, Genentech, Inc., South San Francisco, CA, USA) were purchased and stock solutions were stored. Dilutions were prepared in 2% FBS (maintenance media) at the time of assay. TCID50 assay was employed to measure the titer of the virus stocks for antiviral evaluation following standard methods. The viral CPE was observed on the third and fourth days and observations were recorded based on the Reed–Muench method.
Plates were seeded with Vero cell suspension (100 µL) at a density of 1 × 10^5 cells/mL one day before the wells were treated with TCID50 (100 µL) dilution of the DENV 2 stock and untreated control wells were maintained in parallel. After 1 h of viral adsorption, unbound viruses were washed and different antiviral dilutions were added. These plates were further incubated for 4 more days and were observed daily. Observations were recorded on the third and fourth days. The wells were marked for CPE reduction according to the grading system defined by Kudi and Myint.

The nature of series [3]: MTT cytotoxicity assay. The conditions noted are these: African green monkey (Chlorocebus sp.), Vero cells (kidney), four days incubation, Table 4. In kind it is cell-based. The procedure: as §1
The 96-well plates were seeded with 100 µL of Vero cell suspension at a density of 1 × 10^5 cells / mL and the next day were treated with different dilutions of the synthesized compounds. Control wells were treated with only the vehicle media used to prepare the antiviral dilutions. Plates were incubated for four days at 37 °C. Following the addition of 15 μL of MTT (Sigma-Aldrich Corp., St. Louis, MO, USA) solution into each well, the plates were incubated at 37 °C for another 4 h. Subsequently, the medium was carefully aspirated from all the wells and 100 μL of DMSO was added to each well [26]. The optical density (OD) of the wells was measured at 570 nm using a 96-well plate reader (Tecan Group AG, Männedorf, Switzerland). The percentage cell viability was calculated against the untreated controls. Dose-response curves were plotted. Half maximal cytotoxic concentration (CC50) was calculated using Graph Pad Prism for Windows, Version 5 (GraphPad Software Inc., San Diego, CA, USA).

The mark [4] stands for this setting: DENV 2 infected Vero cells, foci reduction after 4 days of treatment.

Molecules are shown by their SMILES. Read-outs that look alike come from different tables or passages of the source.

`CC1(C)[C@@H]2CC[C@@]1(C)/C(=N/NC(=S)SCc1ccccc1)C2` [SBRCM, Benzyl (E)-2-((1R,4R)-1,7,7-trimethylbicyclo[2.2.1]heptan-2-ylidene)hydrazine-1-carbodithioate]: the “Selectivity index CC50/IC50” value in series [1] is given as 10.4. Further, the “reduction in the number of foci” value in series [1] (DENV 2 infected Vero cells) is “reduction in the number of foci appearance”. Besides, in series [1] (setting [4]), the concentration for half-maximal inhibition (IC50) worked out at 7.8 ± 4.5 µM. For the same compound, the CPE reduction entry in series [2] was “++ (++ for 50% reduction)”. For the same compound, the midpoint of cytotoxicity in series [3], the CC50 at 4 days, lay at 81.7 ± 4.4 µM.
Take `C=C(C)[C@@H]1CC=C(C)/C(=N/NC(=S)SCc2ccccc2)C1` [SBRCV, Benzyl (R,E)-2-(2-methyl-5-(prop-1-en-2-yl)cyclohex-2-en-1-ylidene)hydrazine-1-carbodithioate]: the CPE reduction entry in series [2] is on record as “+ (+ for less than 50% reduction)”. Besides, in series [3], the CC50 at 4 days turned out to be 28.5 ± 3.9 µM.
Consider `CC1(C)[C@H]2CC[C@]1(C)/C(=N/NC(=S)SCc1ccccc1)C2` [SBSCM, Benzyl (E)-2-((1S,4S)-1,7,7-trimethylbicyclo[2.2.1]heptan-2-ylidene)hydrazine-1-carbodithioate], for which the “Selectivity index CC50/IC50” value in series [1] was 12.8. Moreover, the “reduction in the number of foci” value in series [1] (DENV 2 infected Vero cells) is reported as “reduction in the number of foci appearance”. Besides, the IC50 in series [1] (setting [4]) stood at 6.8 ± 2.3 µM. The CPE reduction result in series [2] is “++ (++ for 50% reduction)”. Moreover, in series [3], the CC50 at 4 days was 87.2 ± 5.9 µM.
As to `C=C(C)[C@H]1CC=C(C)/C(=N/NC(=S)SCc2ccccc2)C1` [SBSCV, Benzyl (S,E)-2-(2-methyl-5-(prop-1-en-2-yl)cyclohex-2-en-1-ylidene)hydrazine-1-carbodithioate], the CPE reduction result in series [2] was “+ (+ for less than 50% reduction)”. In series [3], this compound yielded a CC50 at 4 days of 29.2 ± 6.4 µM.
For `CSC(=S)N/N=C1\C[C@H]2CC[C@]1(C)C2(C)C` [SMRCM, Methyl (E)-2-((1R,4R)-1,7,7-trimethylbicyclo[2.2.1]heptan-2-ylidene)hydrazine-1-carbodithioate], the “Selectivity index CC50/IC50” value in series [1] stood at 12.8. Moreover, in series [1] (DENV 2 infected Vero cells), the “reduction in the number of foci” value is given as “reduction in the number of foci appearance”. Besides, the 50% inhibitory concentration (IC50) in series [1] (setting [4]) amounted to 6.9 ± 1.2 µM. Besides, the CPE reduction result in series [2] is “++ (++ for 50% reduction)”. Moreover, in series [3], the CC50 at 4 days is 88.4 ± 3.8 µM.
For the compound `C=C(C)[C@@H]1CC=C(C)/C(=N/NC(=S)SC)C1` [SMRCV, Methyl (R,E)-2-(2-methyl-5-(prop-1-en-2-yl)cyclohex-2-en-1-ylidene)hydrazine-1-carbodithioate], the CPE reduction result in series [2] is on record as “--”. The CC50 at 4 days in series [3] came out at 31.1 ± 8 µM.
On to `CSC(=S)N/N=C1\C[C@@H]2CC[C@@]1(C)C2(C)C` [SMSCM, Methyl (E)-2-((1S,4S)-1,7,7-trimethylbicyclo[2.2.1]heptan-2-ylidene)hydrazine-1-carbodithioate], for which, in series [1], the “Selectivity index CC50/IC50” value came out at 14.3. Besides, the “reduction in the number of foci” value in series [1] (DENV 2 infected Vero cells) was “reduction in the number of foci appearance”. Moreover, in series [1] (setting [4]), the 50% inhibitory concentration (IC50) amounted to 6.2 ± 3.2 µM. For the same compound, the CPE reduction result in series [2] is reported as “++ (++ for 50% reduction)”. Moreover, the CC50 at 4 days in series [3] stood at 88.7 ± 2 µM.
For the compound `CSC(=S)N/N=C1\C(=O)[C@@]2(C)CC[C@@H]1C2(C)C` [SMSCQ, Methyl (Z)-2-((1R,4S)-4,7,7-trimethyl-3-oxobicyclo[2.2.1]heptan-2-ylidene)hydrazine-1-carbodithioate], in series [1] (DENV 2 infected Vero cells), the “reduction in the number of foci” value is “reduction in the number of foci appearance”. Moreover, the 50% inhibitory concentration (IC50) in series [1] (Vero) was determined as 6.8 ± 2.8 µM. Besides, in series [2], the CPE reduction result is on record as “+ (+ for less than 50% reduction)”. The same compound returned a half-maximal cytotoxic concentration (CC50) at 4 days in series [3] of 69.2 ± 5.9 µM.
Consider `C=C(C)[C@H]1CC=C(C)/C(=N/NC(=S)SC)C1` [SMSCV, Methyl (S,E)-2-(2-methyl-5-(prop-1-en-2-yl)cyclohex-2-en-1-ylidene)hydrazine-1-carbodithioate], for which the CPE reduction entry in series [2] is “--”. The midpoint of cytotoxicity in series [3], the CC50 at 4 days, lay at 24.5 ± 9.2 µM.
